In patent US20050244983A1, “Method for measuring antioxidant status” (The Western Australian Centre for Pathology and Medical …, priority 2002, published 2005):
Several values for one entry are separate records, joined by “and”; a condition that tells them apart may be missing. Equal values may be shown once.

How the values were obtained:
[1] = AIOR assay (antioxidant inhibition of radical assay): uroporphyrin I fluorescence decay with AAPH, area under curve against Trolox standard curve; format: biochemical; settings: for antioxidant activity of solvent (in words) / Antioxidant status in mM Trolox equivalent, High value / Antioxidant status in mM Trolox equivalent, Low value / Antioxidant status in mM Trolox equivalent, Mean value: solvent compared against blank; for Antioxidant status in mM Trolox equivalent, High value / Antioxidant status in mM Trolox equivalent, Low value / Antioxidant status in mM Trolox equivalent, Mean value / Antioxidant Status Trolox Equivalent (mM) of the observed individual ¼ Dilution: n=9; for Antioxidant Status (mM) Trolox Equivalent Calculated 1/16 Dilution: calculated from the observed ¼ dilution value; for Antioxidant Status Trolox Equivalent (mM) of the observed individual ¼ Dilution: individual polyphenol; for Area Under Curve (mean ± SD): uroporphyrin 1/1000, ratio 1:45:280, n=6
Experimental: The stock phosphate buffer (0.75 M, pH 7.0) was prepared by mixing 61.1:38.9 (v/v) of a 0.75 M K2HPO4 and a 0.75 M NaH2PO4 solution. The working phosphate buffer 75 mM, pH 7.0 was prepared by a 1:9 (v/v) dilution of the 0.75 M stock phosphate buffer.
AAPH (583 mM) was prepared by dissolving completely 0.474 g of AAPH in 3 mL of 75 mM, pH 7.0 phosphate buffer. This solution was prepared freshly before each run.
Uroporphyrin stock solution (225 μM) was prepared by dissolving 1.2 mg of uroporphyrin I dihydrochloride in 5.9 mL of phosphate buffer (75 mM, pH 7.0). This solution was very stable for many months by storing in the dark at 4° C. A secondary uroporphyrin stock solution for routine use was prepared by a 1:50 (v/v) dilution of the stock uroporphyrin solution with phosphate buffer (75 mM, pH 7.0). This secondary stock solution was stable for several months in the dark at 4° C. A working uroporphyrin solution for daily use was prepared by a 1:750 (v/v) dilution of the secondary uroporphyrin solution with phosphate buffer (75 mM, pH 7.0).
To enable complete solubility of both hydrophobic and hydrophilic compounds in the sample, a surfactant Brij 35™ was added to the working uroporphyrin solution in the quantity of 0.1% of the reagent.
Trolox was used as an antioxidant standard to compare the antioxidant status of various inorganic and organic matter. A stock Trolox standard solution (5.0 mM) was prepared by dissolving Trolox 35 (250 mg) in 200 mL of phosphate buffer (75 mM, pH 7.0). Working standards of Trolox were prepared by diluting the stock Trolox standard to 0.5, 1.0 and 2.0 mM with the same buffer.
Sample/blank/standard (1 μL), and working uroporphyrin solution (0.300 uM) with Brij™ (136 μL) were added to the wells of a 96-well microplate. Blank, standards or diluted samples were added first into the well, followed by working uroporphyrin solution with Brij™. The contents of each well was mixed using a plateshaker for 1-2 minutes. Freshly prepared AAPH solution […] (22 μL) was then added. This procedure provided a sample to AAPH to uroporphyrin ratio of (1:22:136). The contents of the wells were then mixed again for exactly 2 minutes before acquisition of data with the Varian Cary Eclipse fluorescence spectrophotometer. A sample to reagent ratio of (2:30:186) was also used to further improve the precision of the assay.
The Varian Cary Eclipse fluorescence spectrophotometer settings were as follows. • Excitation λ=397 nm; Emission λ=615 nm. • Excitation Slit=20 nm; Emission Slit=10 nm. • Ave Time=0.2 sec. • Run Time=180 minutes. • Y (min-max)=0-1000. • Excitation Filter: Auto. • Emission Filter: Open. • PMT: Variable (Choice of low, medium or high).
The method takes the free radical action to completion in 180 minutes. The Varian Cary Eclipse fluorescence spectrophotometer has the ability to achieve high throughput of 96 samples in 180 minutes with the 96-wellplate format. […] This invention provides both a method and reagent, which can accurately, easily, economically, and quickly analyze antioxidant status.
The results of the analysis were normalized by Varian Cary Eclipse software and calculated by GraphPad Prism 4.0 software (GraphPad Software, Inc., San Diego Calif., 2003).

[2] = as above; format: biochemical; settings: for Area Under Curve (mean ± SD): uroporphyrin 1/1000, ratio 1:45:280, n=6

With CCO [Ethanol] the “antioxidant activity of solvent (in words)” value (from here on “antioxidant activity”) [1] was “no antioxidant activity”, the “Antioxidant status in mM Trolox equivalent, High value” (“Antioxidant status … High value” for short) [1] was 0.1 mM and the “Antioxidant status in mM Trolox equivalent, Low value” (from here on “Antioxidant status … Low value”) [1] was 0.0 mM. For the same compound, the “Antioxidant status in mM Trolox equivalent, Mean value” (“Antioxidant status … Mean value” for short) [1] was 0.08 mM.

With CC(C)=O [Acetone] the “antioxidant activity” value [1] was “no antioxidant activity”, the “Antioxidant status … High value” [1] was 0.2 mM and the “Antioxidant status … Low value” [1] was 0.0 mM. The “Antioxidant status … Mean value” [1] was 0.08 mM.

For Oc1cc(O)c2c(c1)O[C@H](c1ccc(O)c(O)c1)[C@H](O)C2 [(−) Epicatechin, (−) epicatechin], the “Antioxidant Status (mM) Trolox Equivalent Calculated 1/16 Dilution” value [1] was 1.00 mM, the “Antioxidant Status Trolox Equivalent (mM) of the observed individual ¼ Dilution” value [1] was 4.03 ± 0.28 mM and the “Antioxidant Status Trolox Equivalent (mM ± SD)” value ([1]; polyphenol 0.25 mM in ethanol) was 1.62 ± 0.13 mM. For the same compound, the “Antioxidant Status Trolox Equivalent (mM ± SD)” value ([1]; polyphenol 0.5 mM in ethanol) was 3.69 ± 0.23 mM.

With Vitamin E the “Antioxidant Status in Trolox Equivalent (mM ± SD)” value ([1]; vitamin E 952 μM in isopropanol, n=10) was 0.4 ± 0.1 mM, the “Antioxidant Status in Trolox Equivalent (mM ± SD)” value ([1]; vitamin E 952 μM in isopropanol, n=10, listed as vitamin E) was 0.4 mM and the “Antioxidant Status in Trolox Equivalent (mM ± SD)” value ([1]; vitamin E 1905 μM in isopropanol, n=10) was 1.1 ± 0.1 mM. For the same compound, the “Antioxidant Status in Trolox Equivalent (mM ± SD)” value ([1]; vitamin E 1905 μM in isopropanol, n=10, listed as vitamin E) was 1.1 mM, the “Antioxidant Status in Trolox Equivalent (mM ± SD)” value ([1]; vitamin E 3810 μM in isopropanol, n=10) was 2.7 ± 0.1 mM and the “Antioxidant Status in Trolox Equivalent (mM ± SD)” value ([1]; vitamin E 3810 μM in isopropanol, n=10, listed as vitamin E) was 2.7 mM.

With Vitamin A the “Antioxidant Status in Trolox Equivalent (mM ± SD)” value ([1]; vitamin A 1940 μM in isopropanol, n=10) was 0.6 ± 0.1 mM, the “Antioxidant Status in Trolox Equivalent (mM ± SD)” value ([1]; vitamin A 1940 μM in isopropanol, n=10, listed as vitamin A) was 0.56 mM and the “Antioxidant Status in Trolox Equivalent (mM ± SD)” value ([1]; vitamin A 3880 μM in isopropanol, n=10) was 1.1 ± 0.1 mM. For the same compound, the “Antioxidant Status in Trolox Equivalent (mM ± SD)” value ([1]; vitamin A 3880 μM in isopropanol, n=10, listed as vitamin A) was 1.11 mM, the “Antioxidant Status in Trolox Equivalent (mM ± SD)” value ([1]; vitamin A 5820 μM in isopropanol, n=10) was 1.4 ± 0.1 mM and the “Antioxidant Status in Trolox Equivalent (mM ± SD)” value ([1]; vitamin A 5820 μM in isopropanol, n=10, listed as vitamin A) was 1.41 mM.

With Cn1c(=O)c2c(ncn2C)n(C)c1=O [caffeine] the “mean antioxidant status in Trolox equivalent” value ([1]; caffeine 9.6 mmol/L in phosphate buffer) was 0.2 mM.

For Albumin, the “Antioxidant Capacity in Trolox Equivalent (mM ± SD)” value ([1]; albumin 20 g/L in phosphate buffer, n=12) was 1.2 mM and 1.2 ± 0.1 mM and the “Antioxidant Capacity in Trolox Equivalent (mM ± SD)” value ([1]; albumin 40 g/L in phosphate buffer, n=12) was 2.4 mM and 2.4 ± 0.1 mM.

With Cc1c(C)c2c(c(C)c1O)CCC(C)(C(=O)O)O2 (racemic) [Trolox, (±)6-hydroxy-2,5,7,8-tetramethylchromane-2-carboxylic acid] the “Area Under Curve (mean ± SD)” value ([1]; STD 1.0 mM, AAPH 640 mM) was 35554 ± 2267, the “Area Under Curve (mean ± SD)” value ([1]; STD 4.0 mM, AAPH 583 mM) was 77238 ± 3701 and the “Mean Area Under Curve” value ([1]; Trolox 0.5 mM, 20 μL Brij 35 per 15 mL working uroporphyrin solution, n=24) was 45482. The “Mean Area Under Curve” value ([1]; Trolox 0.5 mM, 100 μL Brij 35 per 15 mL working uroporphyrin solution, n=24) was 52714, the “Mean Area Under Curve” value ([1]; Trolox 0.5 mM, intra-assay precision, n=16) was 47456 and the “Mean Area Under Curve” value ([1]; Trolox 1.0 mM, 20 μL Brij 35 per 15 mL working uroporphyrin solution, n=24) was 57154. For the same compound, the “Mean Area Under Curve” value ([1]; Trolox 1.0 mM, 100 μL Brij 35 per 15 mL working uroporphyrin solution, n=24) was 61482, the “Mean Area Under Curve” value ([1]; Trolox 1.0 mM, intra-assay precision, n=16) was 57535 and the “Mean Area Under Curve” value ([1]; Trolox 2.0 mM, 20 μL Brij 35 per 15 mL working uroporphyrin solution, n=24) was 72596. The “Mean Area Under Curve” value ([1]; Trolox 2.0 mM, intra-assay precision, n=16) was 76499, the “Area Under Curve (mean ± SD)” value ([2]; STD 1.0 mM, AAPH 583 mM) was 40829 ± 4000 and the “Area Under Curve (mean ± SD)” value ([2]; STD 2.0 mM, AAPH 583 mM) was 55416 ± 3207. The “Area Under Curve (mean ± SD)” value ([2]; STD 2.0 mM, AAPH 640 mM) was 44522 ± 2348, the “Area Under Curve (mean ± SD)” value ([2]; STD 4.0 mM, AAPH 640 mM) was 69220 ± 6603 and the “Mean Area Under Curve” value ([2]; Trolox 2.0 mM, 100 μL Brij 35 per 15 mL working uroporphyrin solution, n=24) was 71394.

In the case of CC(C)O [Isopropanol], the “antioxidant activity” value [1] is reported as “no antioxidant activity”, the “Antioxidant status … High value” [1] is reported as 0.1 mM and the “Antioxidant status … Low value” [1] is reported as 0.0 mM. For the same compound, the “Antioxidant status … Mean value” [1] was 0.04 mM.

In the case of O=C1O[C@H]([C@@H](O)CO)C(O)=C1O [Vitamin C], the “Antioxidant Status in Trolox Equivalent (mM ± SD)” value ([1]; vitamin C 2.65 mM in deionized water, n=12) is reported as 0.9 ± 0.1 mM, the “Antioxidant Status in Trolox Equivalent (mM ± SD)” value ([1]; vitamin C 2.65 mM in deionized water, n=12, listed as vitamin C) is reported as 0.9 mM and the “Antioxidant Status in Trolox Equivalent (mM ± SD)” value ([1]; vitamin C 5.30 mM in deionized water, n=12) is reported as 1.8 ± 0.1 mM. For the same compound, the “Antioxidant Status in Trolox Equivalent (mM ± SD)” value ([1]; vitamin C 5.30 mM in deionized water, n=12, listed as vitamin C) was 1.8 mM, the “Antioxidant Status in Trolox Equivalent (mM ± SD)” value ([1]; vitamin C 10.6 mM in deionized water, outside standard curve range, n=12) was 4.0 ± 0.2 mM and the “Antioxidant Status in Trolox Equivalent (mM ± SD)” value ([1]; vitamin C 10.6 mM in deionized water, outside standard curve range, n=12, listed as vitamin C) was 4.0 mM.

With O=c1c(O)c(-c2ccc(O)c(O)c2)oc2cc(O)cc(O)c12 [Quercetin] the “Antioxidant Status (mM) Trolox Equivalent Calculated 1/16 Dilution” value [1] was 1.10 mM, the “Antioxidant Status Trolox Equivalent (mM) of the observed individual ¼ Dilution” value [1] was 4.41 ± 0.44 mM and the “Antioxidant Status Trolox Equivalent (mM ± SD)” value ([1]; polyphenol 0.25 mM in ethanol) was 1.82 ± 0.13 mM. The “Antioxidant Status Trolox Equivalent (mM ± SD)” value ([1]; polyphenol 0.5 mM in ethanol) was 4.58 ± 0.24 mM.

In the case of (±) catechin, the “Antioxidant Status Trolox Equivalent (mM ± SD)” value ([1]; polyphenol 0.25 mM in ethanol) is reported as 1.60 ± 0.07 mM and the “Antioxidant Status Trolox Equivalent (mM ± SD)” value ([1]; polyphenol 0.5 mM in ethanol) is reported as 3.47 ± 0.19 mM.

With O=c1[nH]c(=O)c2[nH]c(=O)[nH]c2[nH]1 [Uric Acid, Uric acid] the “Antioxidant Status in Trolox Equivalent (mM ± SD)” value ([1]; uric acid 424 μM in phosphate buffer, n=12) was 0.6 ± 0.1 mM, the “Antioxidant Status in Trolox Equivalent (mM ± SD)” value ([1]; uric acid 424 μM in phosphate buffer, n=12, listed as uric acid) was 0.6 mM and the “Antioxidant Status in Trolox Equivalent (mM ± SD)” value ([1]; uric acid 848 μM in phosphate buffer, n=12) was 1.2 ± 0.1 mM. The “Antioxidant Status in Trolox Equivalent (mM ± SD)” value ([1]; uric acid 848 μM in phosphate buffer, n=12, listed as uric acid) was 1.2 mM, the “Antioxidant Status in Trolox Equivalent (mM ± SD)” value ([1]; uric acid 1696 μM in phosphate buffer, n=12) was 2.4 ± 0.1 mM and the “Antioxidant Status in Trolox Equivalent (mM ± SD)” value ([1]; uric acid 1696 μM in phosphate buffer, n=12, listed as uric acid) was 2.4 mM. For the same compound, the “estimation of mean antioxidant status, Trolox equivalent” value ([1]; uric acid at physiological upper range for female, 340 μmol/L) was 0.48 mM and the “estimation of mean antioxidant status, Trolox equivalent” value ([1]; uric acid at physiological upper range for male, 420 μmol/L) was 0.59 mM.

In the case of C[S+](C)[O-] [DMSO, Dimethyl sulphoxide], the “Antioxidant status … High value” [1] is reported as 1.2 mM, the “Antioxidant status … Low value” [1] is reported as 0.6 mM and the “Antioxidant status … Mean value” [1] is reported as 0.86 mM.

In the case of O=C(O)c1cc(O)c(O)c(O)c1 [Gallic acid], the “Antioxidant Status (mM) Trolox Equivalent Calculated 1/16 Dilution” value [1] is reported as 0.45 mM, the “Antioxidant Status Trolox Equivalent (mM) of the observed individual ¼ Dilution” value [1] is reported as 1.75 ± 0.11 mM and the “Antioxidant Status Trolox Equivalent (mM ± SD)” value ([1]; polyphenol 0.25 mM in ethanol) is reported as 0.46 ± 0.07 mM. The “Antioxidant Status Trolox Equivalent (mM ± SD)” value ([1]; polyphenol 0.5 mM in ethanol) was 1.22 ± 0.17 mM.
